The values below come from publication PMC12299847, “Macroalgae-Inspired Brominated Chalcones as Cosmetic Ingredients with the Potential to Target Skin Inflammaging” (Marine Drugs, 2025).

One data set has as its system Nrf2. The data set is described as follows: KeratinoSens assay, Nrf2 luciferase reporter. It counts as cell-based, human. Conditions: 24 h, compared to vehicle (DMSO). How it is done:
The KeratinoSens™ assay was originally developed to assess the skin sensitization potential of Nrf2 activation, but it has also been utilized to evaluate the ability of natural compounds to induce this transcription factor [46, 47]. In this study, we assessed the capacity of chalcones 1 and 2 to activate Nrf2 after 24 and 48 h (Figure 8A–F).
(§1) Selected compounds (chalcones 1 and 2), and the positive control, DMF, were dissolved in sterile DMSO. Intermediate dilutions were prepared in culture medium, including the final concentration to be added to the 96-well plate, with a final volume of 200 µL per well. The KeratinoSens™ assay was conducted as previously described. In brief, cells were seeded at a density of 10,000 cells per well in 96-well white opaque plates (Greiner Bio-One GmbH, cat. no. 655083, Kremsmünster, Austria) and incubated for 24 h. The medium was then replaced with fresh medium containing 1% FBS and the test compounds, and cells were incubated for an additional 24 and 48 h. DMF was used as the positive control since it is a known Nrf2 activator. Cell viability was assessed in the same cells using resazurin. After 20 or 44 h of exposure to the test compounds, 50 µM of resazurin solution (in sterile PBS) was added to each well, and the plates were incubated for 4 h at 37 °C, 5% CO2 Following the resazurin incubation, the supernatant was transferred to a transparent 96-well plate, and absorbance was measured at 570 and 620 nm using a Synergy HT multi-mode microplate reader (BioTek, Bad Friedrichshall, Germany). To measure luciferase activity, cells in the white opaque 96-well plates were washed with 1× PBS. An equal volume of 1× PBS and lysis buffer (One-GLO Luciferase, cat. no. E6130, Promega, Madison, WI, USA) was added to the wells, and the plates were incubated for 20 min at room temperature. Luminescence was then measured using a FLUOstar OMEGA Microplate Reader (BMG Labtech GmbH, Ortenberg, Germany).
Figure 8 Nrf2 activation using the KeratinoSens™ assay in HaCaT cells transfected with an Nrf2 luciferase reporter construct, incubated for 24 h (A–C) or 48 h (D–F) with chalcones 1 and 2. DMF was used as a positive control. Data represent the results from four independent experiments. Non-linear regression analysis was performed using GraphPad Prism v.9.0.0 for Windows. The blue line represents the results of cell viability (% regarding the control) and the green line represents fold induction. Statistical analysis: one ANOVA with Dunnett’s multiple comparisons test, where significance includes. * p < 0.05, ** p < 0.01, *** p < 0.0005, and **** p < 0.0001.
Background: In a reporter assay the amount or activity of a reporter protein is the signal.

Data set [1] has as its system HaCaT cells transfected with an Nrf2 luciferase reporter construct. In words: Cell viability (resazurin) in KeratinoSens cells. It counts as cell-based, human. How it is done: as §1, with “Germany). […]” for “Germany). To measure luciferase activity, cells in the white opaque 96-well plates were washed with 1× PBS. An equal volume of 1× PBS and lysis buffer (One-GLO Luciferase, cat. no. E6130, Promega, Madison, WI, USA) was added to the wells, and the plates were incubated for 20 min at room temperature.”, “Germany). […]” for “Germany).”
A general note: The colour change of resazurin is a common sign of viable cells or microbes.

The subject of the next data set is RAW 264.7 macrophages. The data set is described as follows: Resazurin cell viability assay in RAW 264.7 macrophages. It counts as cell-based, murine. The note with it: RAW 264.7, 24 h, 2.5 to 125 μM. How it is done:
To evaluate the effects of chalcones 1–7 on cell viability after 24 h, a resazurin assay was performed using two cell lines: human HaCaT keratinocytes (HaCaT, CLS 300493), representing the epidermal layer, and murine RAW 264.7 macrophages (RAW 264.7, ATCC TIB-71), which model immune cells involved in dermal inflammatory responses. For the keratinocyte cell line, all seven brominated and non-brominated chalcones were tested across a concentration range from 2.5 μM to 125 μM (Figure 2).
To evaluate the cytotoxic effects of brominated and non-brominated chalcones 1–7 on macrophages, different concentration ranges were applied based on the response profiles previously observed for keratinocytes (Figure 3). […] For this set of chalcones, a similar tendency was observed: a lower cytotoxic characteristic of chalcone 4, which contained bromine atoms in both aromatic rings, compared to chalcones 5 (brominated in only the aromatic A ring) and 6 (non-brominated).
Human keratinocytes (HaCaT, CLS 300493, Eppelheim, Germany) were cultured in DMEM supplemented with heat-inactivated FBS, and a penicillin and streptomycin antibiotic solution. The cell culture of keratinocytes was washed with 6 mL of phosphate buffer solution with 0.05% EDTA (Sigma-Aldrich, St. Louis, MO, USA) and detached using 3 mL of 0.05% trypsin + 0.02% EDTA in PBS solution when the cells reached 70–80% confluence in cell culture flasks. DMEM was also used to cultivate the mouse macrophage cell line (RAW 264.7, ATCC TIB-71, Manassas, VA, USA) together with 10% (v/v) non-inactivated FBS, 1.5 g/L sodium bicarbonate, and 100 U/mL penicillin and 100 μg/mL streptomycin stock (antibiotic solution). The macrophage culture was mechanically detached using a cell scraper, and the final amount of DMEM media with the cells was sub-cultured in a 1:10 ratio to the cellular suspension.
The resazurin reduction assay was employed to evaluate the metabolic activity of human epidermal keratinocyte (HaCaT) and murine macrophage (RAW264.7) cell lines, as outlined in a previous study. In brief, HaCaT cells (1.0 × 10^5 cells/mL) and RAW264.7 cells (5.0 × 10^4 cells/mL) were seeded in 96-well plates (200 μL/well) and incubated overnight at 37 °C to allow for cell attachment. Following this, the cells were treated with different concentrations of the test compounds and kept at 37 °C for 24 h. After 20 h, resazurin (500 μM in sterile phosphate buffer solution, pH 7.4) was added to each well to achieve a final concentration of 50 μM, followed by an additional incubation of 4 h. Absorbance was then measured at wavelengths of 570 and 620 nm using a SpectraMax Plus 384 absorbance microplate spectrophotometer (Molecular Devices, San Jose, CA, USA). Each experiment was conducted in triplicate, with a minimum of three independent assays. […]

For `COc1cc(Br)c(/C=C/C(=O)c2cc(OC)c(OC)cc2Br)cc1OC` [Chalcone 1], the “Nrf2 mean fold induction” value in the data set on Nrf2 (7.5 µM) is 3.49 fold. The fold induction at 5 µM in the data set on Nrf2 (Homo sapiens, 5 µM) came out at 3.18. For the same compound, the fold induction at 7.5 µM in the data set with Nrf2 (Homo sapiens, 7.5 µM) was roughly 3.5. For the same compound, the “effect on cell viability” value in data set [1] (24 h, 5 µM and 7.5 µM) is recorded as “without affecting cell viability”; in data set [1] (48 h) it was “decrease in cell viability”. In the data set with RAW 264.7 macrophages, the cytotoxicity towards macrophages result was “no cytotoxicity”.

Usually fold induction stands for the ratio of treated to control signal.
